Measurements published in US20070049593A1 (priority 2004, published 2007).
Counter-ions that a name gives are not always drawn.

Each molecule was assayed against T1, HCV polymerase (Hepatitis C virus genotype 1b, UniProt P26663) (assay: biochemical).
T1 construct: a region encoding NS5B (J Virol 1991 March, 65(3), 1105-13, 544 amino acids after deletion of 47 amino acids on the C-terminal); 6xHis (C); made in house; host or cells: Escherichia coli
Parameters: species or system HCV BK strain
Method in brief: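 His-tagged NS5B (BK strain, 47-aa C-terminal deletion, E. coli-expressed) at 0.5 μg/ml copied 5 μg/ml run-off RNA bearing the HCV 3′ UTR with 2 μM UTP plus [3H]UTP, 50 μM ATP/GTP, in pH 7.5 Tris with 5 mM MgCl2, 25 °C, 90 min. TCA-precipitated RNA was counted and IC50 calculated.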

T1 sequence (P26663 2420-2963): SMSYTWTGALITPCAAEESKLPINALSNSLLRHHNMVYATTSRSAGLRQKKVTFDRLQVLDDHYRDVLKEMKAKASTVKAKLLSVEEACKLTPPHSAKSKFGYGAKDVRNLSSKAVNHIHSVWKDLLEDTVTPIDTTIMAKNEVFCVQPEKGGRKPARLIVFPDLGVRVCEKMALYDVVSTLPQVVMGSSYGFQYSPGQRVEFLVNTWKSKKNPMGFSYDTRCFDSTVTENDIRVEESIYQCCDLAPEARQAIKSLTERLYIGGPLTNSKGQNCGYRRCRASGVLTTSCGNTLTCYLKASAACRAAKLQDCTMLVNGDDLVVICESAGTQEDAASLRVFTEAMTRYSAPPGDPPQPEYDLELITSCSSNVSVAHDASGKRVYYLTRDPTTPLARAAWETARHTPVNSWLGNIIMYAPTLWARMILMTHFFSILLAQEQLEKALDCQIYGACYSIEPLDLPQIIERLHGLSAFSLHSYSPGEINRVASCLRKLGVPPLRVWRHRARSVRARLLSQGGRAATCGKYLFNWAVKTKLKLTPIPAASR

| SMILES | IC50 [nM] |
| --- | --- |
| CC(C)(NC(=O)c1ccc2c(C3CCCCC3)c3n(c2c1)CCOc1ccccc1-3)c1nc2ccccc2n1CC(=O)O [Example 2-312, (2-{1-[(12-cyclohexyl-6,7-dihydro-5-oxa-7a-azadibenzo[a,e]azulene-9-carbonyl)amino]-1-methylethyl}benzimidazol-1-yl)acetic acid] | < 100 |
| COC(=O)c1ccc2nc(C3(NC(=O)c4ccc5c(C6CCCCC6)c6n(c5c4)CCOc4ccccc4-6)CCN(C)CC3)[nH]c2c1 [Example 2-313, methyl 2-{4-[(12-cyclohexyl-6,7-dihydro-5-oxa-7a-azadibenzo[a,e]azulene-9-carbonyl)amino]-1-methylpiperidin-4-yl]-3H-benzimidazole-5-carboxylate] | < 100 |
| COC[C@H](Cc1ccc(O)cc1)NC(=O)c1ccc2c(C3CCCCC3)c3n(c2c1)CCOc1cc(OC)ccc1-3 [Example 2-314, N—[(S)-1-(4-hydroxybenzyl)-2-methoxyethyl]-12-cyclohexyl-3-methoxy-6,7-dihydro-5-oxa-7a-azadibenzo[a,e]azulene-9-carboxamide] | < 100 |
| COC(=O)C(Cc1ccc(O)c(F)c1)NC(=O)c1ccc2c(C3CCCCC3)c3n(c2c1)CCOc1cc(OC)ccc1-3 (stereo not drawn) [Example 2-315, methyl 2-[(12-cyclohexyl-3-methoxy-6,7-dihydro-5-oxa-7a-azadibenzo[a,e]azulene-9-carbonyl)amino]-3-(3-fluoro-4-hydroxyphenyl)propionate] | < 100 |
| COC(=O)[C@H](Cc1c[nH]c2ccc(O)cc12)NC(=O)c1ccc2c(C3CCCCC3)c3n(c2c1)CCOc1cc(OC)ccc1-3 [Example 2-316, methyl (S)-2-[(12-cyclohexyl-3-methoxy-6,7-dihydro-5-oxa-7a-azadibenzo[a,e]azulene-9-carbonyl)amino]-3-(5-hydroxy-1H-indol-3-yl)propionate] | < 100 |
| COC(=O)[C@H](Cc1ccc(NC(=O)OCc2ccccc2)cc1)NC(=O)c1ccc2c(C3CCCCC3)c3n(c2c1)CCOc1cc(OC)ccc1-3 [Example 2-317, methyl (S)-3-(4-benzyloxycarbonylaminophenyl)-2-[(12-cyclohexyl-3-methoxy-6,7-dihydro-5-oxa-7a-azadibenzo[a,e]azulene-9-carbonyl)amino]propionate] | < 100 |
| COc1ccc2c(c1)OCCn1c-2c(C2CCCCC2)c2ccc(C(=O)N[C@@H](Cc3ccc(NC(=O)OCc4ccccc4)cc3)C(=O)O)cc21 [Example 2-318, (S)-3-(4-benzyloxycarbonylaminophenyl)-2-[(12-cyclohexyl-3-methoxy-6,7-dihydro-5-oxa-7a-azadibenzo[a,e]azulene-9-carbonyl)amino]propionic acid] | < 100 |
| COC(=O)[C@H](Cc1ccc(N)cc1)NC(=O)c1ccc2c(C3CCCCC3)c3n(c2c1)CCOc1cc(OC)ccc1-3 [Example 2-319, methyl (S)-3-(4-aminophenyl)-2-[(12-cyclohexyl-3-methoxy-6,7-dihydro-5-oxa-7a-azadibenzo[a,e]azulene-9-carbonyl)amino]propionate] | < 100 |
| COc1ccc2c(c1)OCCn1c-2c(C2CCCCC2)c2ccc(C(=O)N[C@@H](Cc3ccc(N)cc3)C(=O)O)cc21 [Example 2-320, (S)-3-(4-aminophenyl)-2-[(12-cyclohexyl-3-methoxy-6,7-dihydro-5-oxa-7a-azadibenzo[a,e]azulene-9-carbonyl)amino]propionic acid] | < 100 |
| CC(C)(C)OC(=O)NC1CCN(C(=O)C(C)(C)NC(=O)c2ccc3c(C4CCCCC4)c4n(c3c2)CCOc2ccccc2-4)CC1 [Example 2-321, tert-butyl (1-{2-[(12-cyclohexyl-6,7-dihydro-5-oxa-7a-azadibenzo[a,e]azulene-9-carbonyl)amino]-2-methylpropionyl)piperidin-4-yl)carbamate] | < 100 |
| CC(C)(NC(=O)c1ccc2c(C3CCCCC3)c3n(c2c1)CCOc1ccccc1-3)C(=O)N1CCC(O)C1 (stereo not drawn) [Example 2-322, N-[2-(3-hydroxypyrrolidin-1-yl)-1,1-dimethyl-2-oxoethyl]-12-cyclohexyl-6,7-dihydro-5-oxa-7a-azadibenzo[a,e]azulene-9-carboxamide] | < 100 |
| COCc1cccc(-c2cccc3c2OCCn2c-3c(C3CCCCC3)c3ccc(C(=O)O)cc32)c1 [Example 2-323, 12-cyclohexyl-4-(3-methoxymethylphenyl)-6,7-dihydro-5-oxa-7a-azadibenzo[a,e]azulene-9-carboxylic acid] | < 100 |
| O=C(O)c1ccc2c(C3CCCCC3)c3n(c2c1)CCOc1c(Nc2ccccc2)cccc1-3 [Example 2-324, 12-cyclohexyl-4-phenylamino-6,7-dihydro-5-oxa-7a-azadibenzo[a,e]azulene-9-carboxylic acid] | < 100 |
| O=C(O)c1ccc2c(C3CCCCC3)c3n(c2c1)CCOc1c(-c2ccccc2CO)cccc1-3 [Example 2-325, 12-cyclohexyl-4-(2-hydroxymethylphenyl)-6,7-dihydro-5-oxa-7a-azadibenzo[a,e]azulene-9-carboxylic acid] | < 100 |
| COCc1ccccc1-c1cccc2c1OCCn1c-2c(C2CCCCC2)c2ccc(C(=O)O)cc21 [Example 2-327, 12-cyclohexyl-4-(2-methoxymethylphenyl)-6,7-dihydro-5-oxa-7a-azadibenzo[a,e]azulene-9-carboxylic acid] | < 100 |
| CN(C)Cc1cccc(-c2cccc3c2OCCn2c-3c(C3CCCCC3)c3ccc(C(=O)O)cc32)c1 [Example 2-328, 12-cyclohexyl-4-(3-dimethylaminomethylphenyl)-6,7-dihydro-5-oxa-7a-azadibenzo[a,e]azulene-9-carboxylic acid monohydrochloride] | < 100 |
| CCOC(=O)c1ccc2c(c1)nc(C(C)(C)NC(=O)c1ccc3c(C4CCCCC4)c4n(c3c1)CCOc1ccccc1-4)n2C [Example 2-329, ethyl 2-{1-[(12-cyclohexyl-6,7-dihydro-5-oxa-7a-azadibenzo[a,e]azulene-9-carbonyl)amino]-1-methylethyl}-1-methyl-1H-benzimidazole-5-carboxylate] | < 100 |
| Cn1c(C(C)(C)NC(=O)c2ccc3c(C4CCCCC4)c4n(c3c2)CCOc2ccccc2-4)nc2cc(C(=O)O)ccc21 [Example 2-330, 2-{1-[(12-cyclohexyl-6,7-dihydro-5-oxa-7a-azadibenzo[a,e]azulene-9-carbonyl)amino]-1-methylethyl}-1-methyl-1H-benzimidazole-5-carboxylic acid] | < 100 |
| COC(=O)c1cc2nc(C(C)(C)NC(=O)c3ccc4c(C5CCCCC5)c5n(c4c3)CCOc3cc(OC)ccc3-5)[nH]c2cc1OC [Example 2-331, methyl 2-{1-[(12-cyclohexyl-3-methoxy-6,7-dihydro-5-oxa-7a-azadibenzo[a,e]azulene-9-carbonyl)amino]-1-methylethyl}-6-methoxy-1H-benzimidazole-5-carboxylate] | < 100 |
| COc1ccc2c(c1)OCCn1c-2c(C2CCCCC2)c2ccc(C(=O)NC(C)(C)c3nc4ccc(C(=O)O)cc4[nH]3)cc21 [Example 2-332, 2-{1-[(12-cyclohexyl-3-methoxy-6,7-dihydro-5-oxa-7a-azadibenzo[a,e]azulene-9-carbonyl)amino]-1-methylethyl}-3H-benzimidazole-5-carboxylic acid] | < 100 |
| CCN(CCCCOC)C(=O)C(C)(C)NC(=O)c1ccc2c(C3CCCCC3)c3n(c2c1)CCOc1ccccc1-3 [Example 2-333, N-{1-[N-ethyl-N-(4-methoxybutyl)carbamoyl]-1-methylethyl}-12-cyclohexyl-6,7-dihydro-5-oxa-7a-azadibenzo[a,e]azulene-9-carboxamide] | < 100 |
| CC(=O)NC1CCN(C(=O)C(C)(C)NC(=O)c2ccc3c(C4CCCCC4)c4n(c3c2)CCOc2ccccc2-4)CC1 [Example 2-334, N-[2-(4-acetylaminopiperidin-1-yl)-1,1-dimethyl-2-oxoethyl]-12-cyclohexyl-6,7-dihydro-5-oxa-7a-azadibenzo[a,e]azulene-9-carboxamide] | < 100 |
| CC(C)(NC(=O)c1ccc2c(C3CCCCC3)c3n(c2c1)CCOc1ccccc1-3)C(=O)N1CCC(NS(C)(=O)=O)CC1 [Example 2-335, N-[2-(4-methanesulfonylaminopiperidin-1-yl)-1,1-dimethyl-2-oxoethyl]-12-cyclohexyl-6,7-dihydro-5-oxa-7a-azadibenzo[a,e]azulene-9-carboxamide] | < 100 |
| COC(=O)c1ccc2nc(C(C)(C)NC(=O)c3ccc4c(C5CCCCC5)c5n(c4c3)CCOc3ccccc3-5)n(C)c2c1 [Example 2-336, methyl 2-{1-[(12-cyclohexyl-6,7-dihydro-5-oxa-7a-azadibenzo[a,e]azulene-9-carbonyl)amino]-1-methylethyl}-3-methyl-3H-benzimidazole-5-carboxylate] | < 100 |
| Cn1c(C(C)(C)NC(=O)c2ccc3c(C4CCCCC4)c4n(c3c2)CCOc2ccccc2-4)nc2ccc(C(=O)O)cc21 [Example 2-337, 2-{1-[(12-cyclohexyl-6,7-dihydro-5-oxa-7a-azadibenzo[a,e]azulene-9-carbonyl)amino]-1-methylethyl}-3-methyl-3H-benzimidazole-5-carboxylic acid] | < 100 |
| COC(=O)[C@H](Cc1ccc(NC(C)=O)cc1)NC(=O)c1ccc2c(C3CCCCC3)c3n(c2c1)CCOc1cc(OC)ccc1-3 [Example 2-338, methyl (S)-3-(4-acetylaminophenyl)-2-[(12-cyclohexyl-3-methoxy-6,7-dihydro-5-oxa-7a-azadibenzo[a,e]azulene-9-carbonyl)amino]propionate] | < 100 |
| COC(=O)[C@H](Cc1ccc(NS(C)(=O)=O)cc1)NC(=O)c1ccc2c(C3CCCCC3)c3n(c2c1)CCOc1cc(OC)ccc1-3 [Example 2-339, methyl (S)-2-[(12-cyclohexyl-3-methoxy-6,7-dihydro-5-oxa-7a-azadibenzo[a,e]azulene-9-carbonyl)amino]-3-(4-methanesulfonylaminophenyl)propionate] | < 100 |
